Literature values, collected in US12377071B2, “Methods of treating conditions related to the S1P1 receptor” (Arena Pharmaceuticals, Inc., priority 2015, dated 2025).

Conditions: clinical trials; cited from earlier work

For `CCCCCCCCc1ccc(CCC(N)(CO)CO)cc1` [FTY720, fingolimod], the Adverse event is listed as “transient asymptomatic bradycardia”.
